Tests used:
[1] = system: RNase III; settings: cited from earlier work
[2] = molecular target: FKBP12 (Homo sapiens, UniProt P62942); settings: cited from earlier work
[3] = system: FKBP12-fusion proteins (GAL4DBD-FKBP, VPAD-FKBP); experiment: FK1012-inducible luciferase transcription assay in CHO cells; assay type: cell-based; settings: 200 nM, 10 hours
Procedure: Previously, syntheses of FK1012 variants either involve multi-step transformations with 18% overall yields, or a single-step cross metathesis with 50% yield with a 22-hour reaction time. […] Using dithiothreitol (DTT) as the linker, two equivalents of tacrolimus and one equivalent of DTT were coupled under the TEC reaction condition to produce FK1012-DT (Compound 15, FIG. 12) in one step within 15 minutes in quantitative yield (FIG. 12, Scheme (a)). […] For the assay, two DNA constructs were prepared, each one encoding an FKBP12-fusion protein. […]
Cells in 24-well plates were lysed with 100 μL of 1× Passive Lysis Buffer (Promega Corporation, Madison, Wis.) at room temperature for 10 minutes on a shaker. […] 90 μL of Luciferase substrate solution (5 mg of D-luciferin and 7 mg of coenzyme A in 33mL of Luciferase reading buffer, which includes 20 mM tricine, 1.07 mM (MgCO3)4Mg(OH)2.5H2O, 2.67 mM MgSO4, 0.1 mM EDTA, 33.3 mM dithiothreitol and 0.53 mM ATP in water) was added into each well with cell lysates. The signal was read with a 3 s delay and 1 s integration with GLOMAX multi-detection system (Promega Corp., Madison, Wis.). Obtained data were analyzed by KALEIDAGRAPH (Synergy Software, Reading, Pa.).

Chain of FKBP12 (P62942 whole entry, species assumed, the tested form may be a part): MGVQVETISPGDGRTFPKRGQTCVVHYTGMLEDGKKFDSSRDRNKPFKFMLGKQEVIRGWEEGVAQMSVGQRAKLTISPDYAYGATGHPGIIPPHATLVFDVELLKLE

O=C1c2ccccc2C(=O)N1O [N-hydroxyphthalimide]
affinity as RNase III inhibitor [1]: low affinity

CCC(C)(C)C(=O)C(=O)N1CCCC[C@H]1C(=O)O[C@H](CCc1ccc(OC)c(OC)c1)c1cccc(N)c1 [SLF, (1R)-1-(3-aminophenyl)-3-(3,4-dimethoxyphenyl)propyl ester-1-(3,3-dimethyl-1,2-dioxopentyl)-2S-piperidinecarboxylic acid]
decrease of affinity for FKBP12 compared to tacrolimus [2]: 10 fold

C=CC[C@@H]1/C=C(\C)C[C@H](C)C[C@H](OC)[C@H]2O[C@@](O)(C(=O)C(=O)N3CCCC[C@H]3C(=O)O[C@H](/C(C)=C/[C@@H]3CC[C@@H](O)[C@H](OC)C3)[C@H](C)[C@@H](O)CC1=O)[C@H](C)C[C@@H]2OC [tacrolimus, Tacrolimus]
induction of luciferase (compared to the no drug control) [3]: not observed
